# From article PMC11997307, “Rat Sarcoma (RAS)-Protein-Targeting Synthetic Cell-Penetrating Peptide as an Anticancer Biomaterial” (Biomaterials Research, 2025)
# Experiments:
# [1] = tested on: MDA-MB-231 cell-derived tumors; assay type: in vivo
# Method: Fertilized white leghorn eggs, sourced from the Société Française de Production Avicole (St. Brieuc, France), were incubated for 9 d at 37.5 °C with 50% relative humidity. On embryonic day 9 (E9), a small hole was drilled into the air sac to lower the chorioallantoic membrane (CAM), and a 1-cm^2 window was created in the eggshell above the CAM. The MDA-MB-231 cell line was cultivated in DMEM supplemented with 10% FBS (and 1% penicillin/streptomycin). Cells (at 90% confluency, passages 30 to 32) were detached from culture plates with trypsin/EDTA, rinsed with complete medium, and suspended in graft medium. An inoculum of 1 × 10^6 cells was added onto the CAM of each egg. The eggs were randomly assigned to groups. On day 10 (E10), tumors were detectable. They were then treated every 2 d for 9 d (E11, E13, E15, and E17); specifically, 100 μl of the vehicle or 100 μl of the peptide (10 mg/kg) was added dropwise to the tumor. Angiogenesis was estimated by calculating the number of vessels on the CAM that irrigated tumors. Because tumors generated from MDA-MB-231 cells are hemorrhagic, images were obtained at E16 (2 d before collection to ensure that all vessels in the CAM were visible). On day 18 (E18), the upper portion of the CAM containing the tumor was removed, washed in PBS, and then directly transferred to paraformaldehyde (for 48 h for fixation). The tumors were then carefully removed from normal CAM tissue and weighed. The extent of treatment toxicity was evaluated according to the number of dead embryos after 9 d of treatment and observation of visible macroscopic abnormalities at the end point.
# In parallel, a 1-cm^2 portion of the lower CAM was collected to evaluate the number of metastatic cells. Genomic DNA was extracted from the CAM and analyzed for human Alu sequences via quantitative polymerase chain reaction (qPCR) with specific primers. Calculation of the Cq for each sample, the mean Cq, and the number of metastases for each group were performed with the Bio-Rad CFX Maestro software (Bio-Rad, Hercules, CA, USA). According to the real-time PCR data markup language data standard (http://www.rdml.org), Cq is defined as the cycle at which the amplification curve […] (fractional PCR cycles). The Cq value is obtained in the exponential phase, where the qPCR curve is linear. This is the basic result of qPCR: lower Cq values indicate higher initial copy numbers of the target gene. When the PCR efficiency is 100%, a difference of 1 cycle between 2 reactions means that there are 2 times more copies (genes) in the reaction with the lower Cq value than in the reaction with the higher Cq value. One-way analysis of variance (ANOVA) with post hoc tests was performed on the data.
# On day 18 (E18), 5 tumor samples per group (different from the tumor samples used for tumor weight determination) were collected to evaluate the infiltration of immune cells. Each tumor sample was cut to a small size (<0.5 cm^3) and kept in 5 volumes of RNAlater solution at 4 °C. The extracted RNA was analyzed via reverse transcription qPCR with specific primers for chicken CD3 and CD4 sequences. The Bio-Rad CFX Maestro software was used to calculate the Cq values for each sample, determine the mean Cq, and quantify the relative expression of immune cell markers in each group.
# Three tumors per group were harvested and fixed in 4% formaldehyde, washed, and then stored in 70% ethanol until needed for experiments. The tumors were cut to a standard size and placed in an embedding cassette. The paraffin blocks were sectioned at a thickness of approximately 3 to 5 μm. The cells were placed on a glass slide, stained with hematoxylin and eosin (H&E) and Ki-67, and covered in an automated machine. Pictures were taken via a microscope (Olympus BX60, serial no. 7D04032, Shinjuku, Japan) at a magnification of ×4 and a microscope camera (Olympus DP73, serial no. OH05504, Shinjuku, Japan). […]
# MDA-MB-231 cells = experiment: Cell viability, CCK-8 assay, MDA-MB-231; assay type: cell-based, human; settings: MDA-MB-231 (KRAS G13D), CCK-8, 0-1,000 μM RBP, 24, 48 or 72 h, triplicate
# Method: (§1) The viability of the cells was determined via Cell Counting Kit-8 (CCK-8; Dojindo Laboratories, Kumamoto, Japan) assay. The cells were plated in 96-well culture plates at a density of 5 × 10^3 cells per well and incubated for 24 h at 37 °C in a humidified incubator with 5% CO2. […] After incubation, the medium was replaced with fresh medium containing 10% (v/v) CCK-8 reagent, and the cells were incubated for 2 h. Absorbance was measured at 450 nm using a microplate reader. All experiments were performed in triplicate.
# HT-29 cells = experiment: Cell viability, CCK-8 assay, HT-29; assay type: cell-based, human; settings: HT-29 (KRAS wild-type), CCK-8, 0-1,000 μM RBP, 24, 48 or 72 h, triplicate
# Method: as §1
# [2] = tested on: phospho-c-RAF and phospho-ERK1/2 in MCF-7 cells; experiment: Western blot of RAS-MAPK pathway, MCF-7; assay type: cell-based, human; settings: MCF-7, 10-250 μM RBP 6 h then 50 ng/ml EGF 10 min
# Method: (§2) Protein expression was confirmed via Western blot analysis. Briefly, 9 × 10^5 cells were cultured in 100-mm-diameter dishes. When they reached 90% confluence, the cells were starved for 18 h in serum-free medium. […] At the end of the culture period, the cells were lysed for 20 min in cold lysis buffer on ice. Protein concentration was measured using bicinchoninic acid protein assays (Thermo Fisher Scientific, MA, USA). Equal aliquots of protein (40 μg) were boiled for 7 min in 5× sample buffer and separated by 10% SDS–PAGE. Proteins were transferred onto nitrocellulose membranes, followed by washing with Tris-buffered saline (TBS) containing 0.1% Tween 20 (TBST). The membranes were then blocked for 60 min at room temperature with 5% skim milk in TBST. Following the washing procedure, the membranes were incubated with primary antibodies (RAS, phospho-ERK1/2, ERK1/2, phospho-RAF proto-oncogene serine/threonine-protein kinase [phospho-c-RAF; S338], c-RAF [Cell Signaling Technology, Beverly, MA, USA], and GAPDH [Santa Cruz Biotechnology, Inc., Santa Cruz, CA, USA]) diluted in TBST containing 5% skim milk at 4 °C for 18 h. […] The membranes were subsequently washed 3 more times, and protein bands were detected using chemiluminescence reagents (West Pico PLUS, Thermo Fisher Scientific, USA).
# [3] = tested on: phospho-c-RAF and phospho-ERK1/2 in HT-29 cells; experiment: Western blot of RAS-MAPK pathway, HT-29; assay type: cell-based, human; settings: HT-29, 10-250 μM RBP 6 h then 50 ng/ml EGF 10 min
# Method: as §2
# [4] = chicken egg CAM tumors, 10 mg/kg, E18, 5 tumors per group, normalized to GAPDH
compound,measurement,setting,value
C[C@@H](O)[C@H](NC(=O)[C@H](CO)NC(=O)[C@H](CS)NC(=O)[C@H](CCCCN)NC(=O)CN)C(=O)N[C@@H](CCCNC(=N)N)C(=O)NCC(=O)N[C@@H](CCCNC(=N)N)C(=O)N[C@@H](CCCCN)C(=O)N[C@@H](CS)C(=O)N[C@@H](CS)C(=O)N[C@@H](CCCNC(=N)N)C(=O)N[C@@H](CCCNC(=N)N)C(=O)N[C@@H](CCCCN)C(=O)N[C@@H](CCCCN)C(N)=O [RBP],Ki-67 expression in tumor sections (IHC),"[1]; chicken egg CAM tumors, 10 mg/kg",reduced Ki-67 expression
same,"infiltration of CD3-positive immune cells in tumors (chicken CD3 mRNA, RT-qPCR)",[1]; [4],increased infiltration
same,"infiltration of CD4-positive immune cells in tumors (chicken CD4 mRNA, RT-qPCR)",[1]; [4],increased infiltration
same,formation of microvessels,"[1]; chicken egg CAM, 10 mg/kg, E16",significantly suppressed
same,metastasis of MDA-MB-231 cells to lower CAM (human Alu qPCR),"[1]; chicken egg CAM, 10 mg/kg, E18, P < 0.01 vs Neg Ctrl",significantly inhibited
same,number of vessels reaching and feeding the tumors,"[1]; chicken egg CAM, 10 mg/kg, images at E16, P < 0.05 vs Neg Ctrl",significantly reduced
same,average tumor weight,"[1]; chicken egg CAM, MDA-MB-231, 10 mg/kg at E11, E13, E15, E17, collected E18, mean ± SD, P < 0.01 vs Neg Ctrl (54.40 ± 12.22 mg)",22.10 ± 5.86 mg
same,embryo mortality compared to negative control,"[1]; in vivo, 10 mg/kg",no statistically significant difference
same,percentage of viable cells,MDA-MB-231 cells,reduced the percentage of viable KRAS G13D mutant cells in a dose-dependent manner
same,decrease in the percentage of viable cells,HT-29 cells,not significant
same,RAF activation,[2],did not inhibit
same,ERK1/2 phosphorylation,[2]; n = 3,did not inhibit
same,RAF activation,[3],did not inhibit
same,ERK1/2 phosphorylation,[3]; n = 3,did not inhibit
